Data taken from the NIST ThermoML archive (doi:10.1016/j.tca.2006.01.013).

Conditions: 101.33 kPa, Liquid, Vibrating tube method

NCCN [ethane-1,2-diamine]
Conditions	mass density [kg/m3]
285.15 K	904.27
285.65 K	903.81
286.15 K	903.34
286.65 K	902.87
287.15 K	902.41
287.65 K	901.94
288.15 K	901.47
288.65 K	901
289.15 K	900.53
289.65 K	900.07
290.15 K	899.6
290.65 K	899.13
291.15 K	898.66
291.65 K	898.19
292.15 K	897.72
292.65 K	897.25
293.15 K	896.78
293.65 K	896.31
294.15 K	895.85
294.65 K	895.38
295.15 K	894.91
295.65 K	894.44
296.15 K	893.97
296.65 K	893.5
297.15 K	893.03
297.65 K	892.56
298.15 K	892.09
298.65 K	891.62
299.15 K	891.14
299.65 K	890.67
300.15 K	890.2
300.65 K	889.73
301.15 K	889.26
301.65 K	888.79
302.15 K	888.32
302.65 K	887.85
303.15 K	887.38
303.65 K	886.9
304.15 K	886.43
304.65 K	885.96
305.15 K	885.49
305.65 K	885.02
306.15 K	884.54
306.65 K	884.07
307.15 K	883.6
307.65 K	883.12
308.15 K	882.65
308.65 K	882.18
309.15 K	881.7
309.65 K	881.23
310.15 K	880.76
310.65 K	880.28
311.15 K	879.81
311.65 K	879.33
312.15 K	878.86
312.65 K	878.38
313.15 K	877.91
313.65 K	877.44
314.15 K	876.96
314.65 K	876.48
315.15 K	876.01
315.65 K	875.53
316.15 K	875.06
316.65 K	874.58
317.15 K	874.11
317.65 K	873.63
318.15 K	873.15
318.65 K	872.68
319.15 K	872.2
319.65 K	871.72
320.15 K	871.25
320.65 K	870.77
321.15 K	870.29
321.65 K	869.81
322.15 K	869.34
322.65 K	868.86
323.15 K	868.38
323.65 K	867.9
324.15 K	867.42
324.65 K	866.94
325.15 K	866.47
325.65 K	865.99
326.15 K	865.51
326.65 K	865.03
327.15 K	864.55
327.65 K	864.07
328.15 K	863.59
328.65 K	863.11
329.15 K	862.63
329.65 K	862.14
330.15 K	861.66
330.65 K	861.18
331.15 K	860.7
331.65 K	860.22
332.15 K	859.74
332.65 K	859.25
333.15 K	858.77
333.65 K	858.29
334.15 K	857.81
334.65 K	857.32
335.15 K	856.84
335.65 K	856.36
336.15 K	855.87
336.65 K	855.39
337.15 K	854.91
337.65 K	854.42
338.15 K	853.93
338.65 K	853.45
339.15 K	852.96
339.65 K	852.48
340.15 K	851.99
340.65 K	851.51
341.15 K	851.02
341.65 K	850.53
342.15 K	850.05
342.65 K	849.56
343.15 K	849.07
343.65 K	848.58
344.15 K	848.1
344.65 K	847.61
345.15 K	847.12
345.65 K	846.63
346.15 K	846.14
346.65 K	845.66
347.15 K	845.17
347.65 K	844.68
348.15 K	844.19
348.65 K	843.7
349.15 K	843.21
349.65 K	842.72
350.15 K	842.23
350.65 K	841.75
351.15 K	841.26
351.65 K	840.76
352.15 K	840.27
352.65 K	839.78
353.15 K	839.29
353.65 K	838.8
354.15 K	838.31
354.65 K	837.81
355.14 K	837.32
355.65 K	836.83
356.15 K	836.33
356.64 K	835.84
357.15 K	835.35
357.65 K	834.85
358.14 K	834.36
358.64 K	833.86
359.14 K	833.37
359.64 K	832.87
360.14 K	832.38
360.64 K	831.88
361.14 K	831.38
361.65 K	830.89
362.15 K	830.39
362.65 K	829.89
363.15 K	829.4
